Laboratory results taken from ChEMBL document CHEMBL5260829, “Recent advances in the discovery of small molecule c-Met Kinase inhibitors” (Eur J Med Chem, 2018).
Blank lines part the entries; values can stand above or below the molecule they belong to.

Legend:
[1] = target: T1, Hepatocyte growth factor receptor (Homo sapiens, UniProt P08581); experiment: Inhibition of c-Met (unknown origin) kinase activity using biotinylated poly-tyrosine as substrate in presence of ATP incubated for 1 hr by AlphaQuest analysis
MKN-45 [2] = experiment: Antiproliferative activity against human MKN-45 cells assessed as reduction in cell proliferation incubated for 48 hrs; assay type: functional, cell-based; details: MKN-45, 48 h
MKN-45 [3] = experiment: cells; details: Homo sapiens, MKN-45, 72 h
[4] = target: T1, Hepatocyte growth factor receptor; experiment: Inhibition of c-Met (unknown origin) kinase activity using poly(Glu-Tyr) at 4:1 ratio as substrate in presence of ATP incubated for 30 mins by HTRF assay
HepG2 [5] = experiment: Antiproliferative activity against human HepG2 cells assessed as reduction in cell viability incubated for 24 hrs by MTT assay; assay type: functional, cell-based; details: HepG2, 24 h
HeLa = experiment: Antiproliferative activity against human HeLa cells assessed as reduction in cell viability incubated for 24 hrs by MTT assay; assay type: functional, cell-based
A549 [6] = experiment: Antiproliferative activity against human A549 cells assessed as reduction in cell viability incubated for 24 hrs by MTT assay; assay type: functional, cell-based; details: A549, 24 h
Bel-7402 = experiment: Antiproliferative activity against human Bel-7402 cells assessed as reduction in cell viability incubated for 24 hrs by MTT assay; assay type: functional, cell-based; details: Bel-7402, 24 h
HepG2 [7] = experiment: Antiproliferative activity against human HepG2 cells assessed as reduction in cell proliferation incubated for 48 hrs by MTT assay; assay type: functional, cell-based; details: HepG2, 48 h
A549 [8] = experiment: Antiproliferative activity against human A549 cells assessed as reduction in cell proliferation incubated for 48 hrs by sulforhodamine B assay; assay type: functional, cell-based; details: A549, 48 h
HT-29 [9] = experiment: Antiproliferative activity against human HT-29 cells assessed as reduction in cell proliferation incubated for 48 hrs by sulforhodamine B assay; assay type: functional, cell-based; details: HT-29, 48 h
[10] = target: T1, Hepatocyte growth factor receptor; experiment: Inhibition of c-Met (unknown origin) kinase activity using peptide as substrate in presence of 33P-ATP incubated for 20 to 30 mins by scintillation counter analysis
MKN-45 [11] = experiment: Antiproliferative activity against human MKN-45 cells assessed as reduction in cell proliferation incubated for 48 hrs by sulforhodamine B assay; assay type: functional, cell-based; details: MKN-45, 48 h
EBC-1 [12] = experiment: cells; details: Homo sapiens, EBC-1, 72 h
MKN-45 [13] = experiment: cells; details: Homo sapiens, MKN-45, 72 h; remark: listed apart in the source
[14] = target: T1, Hepatocyte growth factor receptor; experiment: Inhibition of c-Met (unknown origin)
[15] = target: T1, Hepatocyte growth factor receptor; experiment: Inhibition of His6-tagged recombinant human c-Met using 5FAM-KKK-SPGEYVNIGFG-NH2 as substrate in presence of ATP incubated for 60 mins by AiphaQuest assay
BaF3 [16] = experiment: cells; details: Mus musculus, BaF3, 72 h
HUVEC = experiment: cells; details: Homo sapiens, 72 h
NIH3T3 [17] = experiment: cells; details: Mus musculus, NIH3T3, 72 h
NIH3T3 [18] = experiment: In vivo antitumor activity against mouse NIH3T3 cells expressing […] protein xenografted in nude mouse assessed as tumor growth inhibition at 100 mg/kg,po for 11 days; assay type: functional; details: NIH3T3, 264 h, time 11 day, read-out: TGI
[19] = Half life in mouse at 10 mg/kg, po; assay type: ADME, organism-based; details: in vivo
BaF3 [20] = experiment: cells; details: Mus musculus, BaF3, 72 h; remark: listed apart in the source
[21] = Cmax in mouse at 10 mg/kg, po; assay type: ADME, organism-based; parameters: dose 10 mg/kg, route po; details: in vivo
[22] = AUC in mouse at 10 mg/kg, po; assay type: ADME, organism-based; parameters: dose 10 mg/kg, route po; details: in vivo
[23] = Oral bioavailability in mouse at 10 mg/kg; assay type: ADME, organism-based; details: in vivo
SNU-5 = experiment: cells; details: Homo sapiens, SNU-5, 72 h
[24] = target: T1, Hepatocyte growth factor receptor; experiment: Inhibition of c-Met (unknown origin) using poly(Glu-Tyr) at 4:1 ratio as substrate in presence of ATP incubated for 60 mins by ELISA
HT-29 [25] = experiment: Antiproliferative activity against human HT-29 cells assessed as reduction in cell proliferation incubated for 72 hrs by MTT assay; assay type: functional, cell-based; details: HT-29, 72 h
Hs746T = experiment: Antiproliferative activity against human Hs746T cells assessed as reduction in cell viability incubated for 72 hrs by WST-8 assay; assay type: functional, cell-based
[26] = target: T1, Hepatocyte growth factor receptor; experiment: Inhibition of recombinant c-Met (unknown origin) using peptide as substrate in presence of ATP by TR-FRET assay
BaF3 [27] = experiment: Antiproliferative activity against mouse BaF3 cells expressing […] protein assessed as reduction in cell proliferation incubated for 72 hrs by Cell Titer-Glo luminescence assay; assay type: functional, cell-based; details: BaF3, 72 h
[28] = target: T1, Hepatocyte growth factor receptor; experiment: Inhibition of c-Met (unknown origin) kinase activity using peptide as substrate in presence of ATP incubated for 1 hrs by ELISA
MKN-45 [29] = experiment: Antiproliferative activity against human MKN-45 cells assessed as reduction in cell proliferation incubated for 72 hrs by CellTiter-Glo luminescent assay; assay type: functional, cell-based; details: MKN-45, 72 h
EBC-1 [30] = experiment: Antiproliferative activity against human EBC-1 cells assessed as reduction in cell proliferation incubated for 72 hrs by CellTiter-Glo luminescent assay; assay type: functional, cell-based; details: EBC-1, 72 h
EBC-1 [31] = experiment: cells; details: Homo sapiens, EBC-1, 72 h; remark: listed apart in the source

T1 sequence (P08581 whole entry): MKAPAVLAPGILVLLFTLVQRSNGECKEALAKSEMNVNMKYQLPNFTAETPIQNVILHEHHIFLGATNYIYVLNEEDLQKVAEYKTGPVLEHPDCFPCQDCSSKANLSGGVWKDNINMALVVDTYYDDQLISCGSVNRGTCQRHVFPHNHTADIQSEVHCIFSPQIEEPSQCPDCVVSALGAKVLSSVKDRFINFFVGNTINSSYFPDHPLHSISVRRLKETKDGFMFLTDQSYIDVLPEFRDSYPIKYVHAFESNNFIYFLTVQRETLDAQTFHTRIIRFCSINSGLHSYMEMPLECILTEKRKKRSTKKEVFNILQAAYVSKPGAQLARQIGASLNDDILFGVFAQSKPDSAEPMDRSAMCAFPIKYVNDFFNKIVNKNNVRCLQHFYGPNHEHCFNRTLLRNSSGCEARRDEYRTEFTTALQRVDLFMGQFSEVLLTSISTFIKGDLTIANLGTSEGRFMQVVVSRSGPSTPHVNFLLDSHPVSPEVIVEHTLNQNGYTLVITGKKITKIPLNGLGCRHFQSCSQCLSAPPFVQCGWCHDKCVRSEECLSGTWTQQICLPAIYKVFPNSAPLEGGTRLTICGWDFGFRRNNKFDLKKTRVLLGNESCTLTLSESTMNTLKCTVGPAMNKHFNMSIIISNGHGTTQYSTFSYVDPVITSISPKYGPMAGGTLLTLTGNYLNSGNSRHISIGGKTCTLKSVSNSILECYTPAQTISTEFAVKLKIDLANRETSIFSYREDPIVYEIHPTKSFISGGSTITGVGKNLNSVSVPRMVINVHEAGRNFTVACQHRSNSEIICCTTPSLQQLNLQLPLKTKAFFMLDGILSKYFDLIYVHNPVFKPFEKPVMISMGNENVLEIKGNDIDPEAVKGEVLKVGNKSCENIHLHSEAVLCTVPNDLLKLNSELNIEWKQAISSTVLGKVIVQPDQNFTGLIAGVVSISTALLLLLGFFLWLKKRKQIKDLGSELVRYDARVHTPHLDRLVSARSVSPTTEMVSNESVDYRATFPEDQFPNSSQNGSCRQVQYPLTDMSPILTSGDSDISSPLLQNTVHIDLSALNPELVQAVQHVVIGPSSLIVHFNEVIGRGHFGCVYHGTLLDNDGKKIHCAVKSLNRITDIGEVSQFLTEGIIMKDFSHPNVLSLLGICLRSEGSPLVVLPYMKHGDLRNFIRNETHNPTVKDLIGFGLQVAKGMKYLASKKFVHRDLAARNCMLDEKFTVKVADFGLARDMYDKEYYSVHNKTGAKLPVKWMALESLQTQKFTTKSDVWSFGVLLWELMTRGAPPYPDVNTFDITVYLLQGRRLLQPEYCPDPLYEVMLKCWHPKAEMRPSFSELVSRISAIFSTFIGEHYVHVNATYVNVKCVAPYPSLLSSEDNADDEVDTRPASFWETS

IC50 (MKN-45 [3]): 10 nM
IC50 [4]: 1.35 nM
Structure (SMILES): COc1cc2c(Oc3ccc(NC(=O)c4cn(-c5ccccc5C(F)(F)F)c5ccccc5c4=O)cc3F)ccnc2cc1OCCCN1CCCCC1

IC50 (HepG2 [7]): 1700 nM
Structure (SMILES): CC(C)(C)OC(=O)N1CCc2c(sc3ncnc(Oc4ccc(NC(=O)C5(C(=O)Nc6ccc(F)cc6)CC5)cc4F)c23)C1

IC50 (MKN-45 [3]): 450 nM
Structure (SMILES): COc1cc2c(Oc3ccc(NC(=O)/C=C/S(=O)(=O)c4ccccc4)cc3F)ccnc2cc1OCCCN1CCN(C)CC1

IC50 (MKN-45 [3]): 21 nM
IC50 (EBC-1 [12]): 12 nM
Structure (SMILES): COc1ccc2c(OCc3nnc4ncc(-c5ccccc5)nn34)ccnc2c1

IC50 (MKN-45 [13]): 570 nM
Structure (SMILES): COc1cc2nccc(Oc3ccc(NC(=O)C4(Cl)CCCN(c5ccc(F)cc5)C4=O)cc3F)c2cc1OC (stereo not given)

IC50 (BaF3 [16]): 130 nM
Structure (SMILES): Cc1c(C(=O)Nc2ccc(Oc3ccnc(-c4nncn4CCCN4CCN(C)CC4)c3)c(F)c2)c(=O)n(-c2ccccc2)n1C
IC50 (HUVEC): 300 nM

IC50 (MKN-45 [3]): 4300 nM
half-life [19]: 2.07 h
IC50 (BaF3 [20]): 590 nM
Cmax [21]: 2170 ng/mL
AUC [22]: 6280 ng·h/mL
bioavailability [23]: 28.3%
IC50 (SNU-5): 5300 nM
Structure (SMILES): O=C(Nc1ccc(Oc2ccnc3[nH]c(-c4ccsc4)nc23)cc1)c1cccn(-c2ccc(F)cc2)c1=O
IC50 (NIH3T3 [17]): 1600 nM
inhibition in vivo at 100 mg/kg (NIH3T3 [18]): 30.9%

IC50 [24]: 9500 nM
Structure (SMILES): COC(=O)c1ccc(N2NC(=O)/C(=C/c3ccc(-c4ccc(Cl)c(C(=O)O)c4)o3)C2=O)cc1

IC50 (MKN-45 [3]): 390 nM
IC50 (HT-29 [25]): 40 nM
Structure (SMILES): COc1cc2c(Oc3ccc(N/C=C(\C#N)C(=O)Nc4ccc(C)cc4)cc3F)ccnc2cc1OCCCN1CCN(C)CC1

IC50 (MKN-45 [3]): 60 nM
IC50 [4]: 17.6 nM
Structure (SMILES): COc1cc2c(Oc3ccc(NC(=O)Nc4nc5c(C)ccc(C)c5s4)cc3F)ccnc2cc1OCCCN1CCN(C)CC1

IC50 (MKN-45 [3]): 30 nM
IC50 [4]: 2.2 nM
Structure (SMILES): COc1cc2c(Oc3ccc(N/C=C4\C(=O)N(c5ccccc5C(F)(F)F)N=C4C)cc3F)ccnc2cc1OCCCN1CCOCC1

The next lines start with the molecule.

Structure (SMILES): OC1CCC(n2cc(-c3ncc4ncn(Cc5ccc6ncccc6c5)c4n3)cn2)CC1 (stereo not given)
IC50 [1]: 10400 nM
IC50 (MKN-45 [2]): 125000 nM

Structure (SMILES): CC(C)=C1C/C=C(\C)CC/C=C(\C)CC1OC(=O)c1ccc(C)cc1 (stereo not given)
IC50 (HepG2 [5]): 68200 nM
IC50 (HeLa): 83600 nM
IC50 (A549 [6]): 84800 nM
IC50 (Bel-7402): 75800 nM

Structure (SMILES): O=C(CSc1nc(=O)c(/C=C/c2ccco2)n[nH]1)N/N=C/c1cccs1
IC50 (A549 [8]): 20 nM
IC50 (HT-29 [9]): 30 nM
IC50 [10]: 4310 nM
IC50 (MKN-45 [11]): 60 nM

Structure (SMILES): c1cnc2ccc(Cn3nnc4ncc(-c5ccc6[nH]c7c(c6c5)CNCC7)nc43)cc2c1
IC50 [14]: 14.5 nM

Structure (SMILES): CC(C)=C1C/C=C(\C)CC/C=C(\C)CC1OS(=O)(=O)c1ccc(C)cc1 (stereo not given)
IC50 (HepG2 [5]): 56200 nM
IC50 (HeLa): 88600 nM
IC50 (A549 [6]): 84500 nM
inhibition [15]: 56%
IC50 (Bel-7402): 71800 nM

Structure (SMILES): Cc1ccc(N2NC(=O)/C(=C/c3ccc(-c4cc([N+](=O)[O-])ccc4O)o3)C2=O)cc1C
IC50 [24]: 460 nM

Structure (SMILES): Cn1cc(-c2ccc(=O)n(C[C@@H]3CN(c4ncc(OCC5CCNCC5)cn4)CCO3)n2)cn1
IC50 (Hs746T): 3170 nM
IC50 [26]: 19 nM

Structure (SMILES): Clc1ccc(-c2cn3cccc(COc4nnc5ccc(Cl)nn45)c3n2)c(Cl)c1
IC50 (BaF3 [27]): 253 nM
IC50 [28]: 53.4 nM

Structure (SMILES): Fc1ccc(Cl)c(Sc2n[nH]c3ncc(-c4cnn(C5CCNCC5)c4)cc23)c1Cl
IC50 (MKN-45 [29]): 329 nM
IC50 (EBC-1 [30]): 479 nM

Structure (SMILES): CNC(=O)c1ccc(-c2ccc3ncc(S(=O)(=O)n4ccc5cnccc54)n3c2)cc1F
IC50 (MKN-45 [13]): 9.9 nM
IC50 (EBC-1 [31]): 19.8 nM
